From PMC4646422 (ACS chemical biology, 2015)
“And” between values parts separate entries of the source, which are not always exact repeats. Equal values may be shown once. Read-outs that look alike come from different tables or passages of the source. Values belong to the compound of their own block, whether it stands above or below them.

Tests used:
[1] = molecular target: Trypsin from porcine pancreas (Sus scrofa, UniProt P00761); assay: Trypsin inhibition assay; type: biochemical; conditions: IC50 vs trypsin, 50 mM potassium phosphate
Sequence of Trypsin from porcine pancreas (P00761 9-231): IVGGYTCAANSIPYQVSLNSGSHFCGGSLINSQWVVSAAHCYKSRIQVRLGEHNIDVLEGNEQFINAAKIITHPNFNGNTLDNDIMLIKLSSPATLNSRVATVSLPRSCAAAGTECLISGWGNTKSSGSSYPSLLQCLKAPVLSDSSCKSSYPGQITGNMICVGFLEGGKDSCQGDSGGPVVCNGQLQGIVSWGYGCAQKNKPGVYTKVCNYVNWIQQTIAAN

[2] = molecular target: malate dehydrogenase (MDH); assay: Malate dehydrogenase; type: biochemical; conditions: for inhibition of MDH (in words): counter-screening enzyme
DYRK1A and CLK1 = conditions: read-out: EC50, DYRK1A and CLK1; representative literature value; cited from earlier work
11 β HSD1 = conditions: read-out: EC50, 11 β HSD1; representative literature value; cited from earlier work
MMP = conditions: read-out: EC50, MMP; representative literature value; cited from earlier work
trypsin = conditions: read-out: EC50, trypsin; representative literature value; cited from earlier work
[3] = type: physicochemical; conditions: for radius: DLS, 25 °C, at twice the compound's CAC; for radius / CAC (critical aggregation concentration): ND = not detected to precipitation limit; for CAC (critical aggregation concentration): dynamic light scattering, 50 mM KPi pH 7.0, 1% DMSO; for particle formation observed by DLS: up to solubility limits; for concentration at which the molecule may aggregate: authors' summary in the discussion
AmpC β-lactamase = AmpC β-lactamase (Escherichia coli, UniProt P00811); assay: biochemical; type: biochemical; conditions: for IC50: IC50 vs AmpC β-lactamase; for inhibition of AmpC β-lactamase (in words): counter-screening enzyme
Sequence of AmpC β-lactamase (P00811 20-377): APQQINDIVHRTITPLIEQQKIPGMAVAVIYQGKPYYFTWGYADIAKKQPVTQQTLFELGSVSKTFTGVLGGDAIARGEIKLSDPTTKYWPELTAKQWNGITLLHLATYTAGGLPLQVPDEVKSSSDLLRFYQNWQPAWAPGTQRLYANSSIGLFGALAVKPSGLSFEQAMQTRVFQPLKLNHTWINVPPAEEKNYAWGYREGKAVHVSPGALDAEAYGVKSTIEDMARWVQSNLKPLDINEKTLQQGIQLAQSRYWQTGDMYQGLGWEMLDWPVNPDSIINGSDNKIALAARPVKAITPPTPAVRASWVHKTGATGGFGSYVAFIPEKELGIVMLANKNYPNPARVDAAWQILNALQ

AMPK = conditions: read-out: EC50, AMPK; representative literature value; cited from earlier work
hCNT = conditions: read-out: EC50, hCNT; representative literature value; cited from earlier work
OCT2 = conditions: read-out: EC50, OCT2; representative literature value; cited from earlier work
MATE1 = conditions: read-out: EC50, MATE1; representative literature value; cited from earlier work
P-glycoprotein = conditions: read-out: EC50, P-glycoprotein; representative literature value; cited from earlier work
CYP3A4 = conditions: read-out: EC50, CYP3A4; representative literature value; cited from earlier work
ASICs = conditions: read-out: EC50, ASICs; representative literature value; cited from earlier work
CDK2 = conditions: read-out: EC50, CDK2; representative literature value; cited from earlier work
ERR = conditions: read-out: EC50, ERR; representative literature value; cited from earlier work
PTP1B = conditions: read-out: EC50, PTP1B; representative literature value; cited from earlier work
GLUT4 = conditions: read-out: EC50, GLUT4; representative literature value; cited from earlier work
Hsp90 = conditions: read-out: EC50, Hsp90; representative literature value; cited from earlier work
HIV-2 protease [4] = molecular target: T1, HIV-2 protease (Human immunodeficiency virus type 2 subtype A, UniProt P04584); conditions: read-out: EC50, HIV-2 protease; representative literature value; cited from earlier work
T1 sequence (P04584 514-612 limits assumed): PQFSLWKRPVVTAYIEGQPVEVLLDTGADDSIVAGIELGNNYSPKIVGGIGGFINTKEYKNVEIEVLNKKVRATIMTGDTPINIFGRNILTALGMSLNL

Ca^2+-ATPase = conditions: read-out: EC50, Ca^2+-ATPase; representative literature value; cited from earlier work
HIV-1 protease = conditions: read-out: EC50, HIV-1 protease; representative literature value; cited from earlier work
HIV-2 protease [5] = molecular target: T1, HIV-2 protease; assay: HIV-2 protease inhibition assay; conditions: IC50 vs HIV-2 protease, 50 mM sodium acetate, pH 5.5, 200 mM sodium chloride
CDK = conditions: read-out: EC50, CDK; representative literature value; cited from earlier work
GL01 = conditions: read-out: EC50, GL01; representative literature value; cited from earlier work
[6] = with detergent, pH 7.0 + 0.01% (v/v) Triton X-100
[7] = read-out: IC50 vs MDH, no detergent, 50 mM potassium phosphate, pH 7.0, ND = not detected to precipitation limit
[8] = read-out: IC50 vs MDH, with DTT, with 1 mM DTT
[9] = read-out: IC50 vs MDH, with detergent, 50 mM potassium phosphate, pH 7.0 + 0.01% (v/v) Triton X-100, ND = not detected to precipitation limit

Compound: Cc1cc(O)c2c(c1)C(=O)c1cc(O)cc(O)c1C2=O [emodin]
IC50 ([1]; no detergent, pH 7.0): 49 µM
IC50 [1, 6]: > 500 µM
IC50 ([2]; read-out: IC50 vs MDH, no DTT): 28 µM
IC50 [2, 7]: 28 µM
IC50 [2, 8]: 18 µM
IC50 [2, 9]: > 100 µM
EC50 (DYRK1A and CLK1): 4.2 to 6.1 µM
EC50 (11 β HSD1): 4.2 to 7.2 µM
EC50 (MMP): 12.8 to 20.1 µM
EC50 (trypsin): 50 µM
radius [3]: 231 ± 61 nm
CAC (critical aggregation concentration) [3]: 28 ± 2 µM
IC50 (AmpC β-lactamase; no DTT): 27 µM
IC50 (AmpC β-lactamase; with DTT, with 1 mM DTT): 17 µM
EC50 (AMPK): 0.5 µM

Compound: O=C(CCc1ccc(O)cc1)c1c(O)cc(O)cc1O[C@@H]1O[C@H](CO)[C@@H](O)[C@H](O)[C@H]1O [phlorizin]
inhibition of MDH (in words) [2]: no inhibition
EC50 (hCNT): 100 to 200 µM
particle formation observed by DLS [3]: no particles were observed
inhibition of AmpC β-lactamase (in words) (AmpC β-lactamase): no inhibition

Compound: COc1ccc2c(c1OC)C(=O)O[C@@H]2[C@H]1c2c(cc3c(c2OC)OCO3)CCN1C [noscapine]
EC50 (OCT2): 2.6 µM
inhibition of MDH (in words) [2]: no inhibition
EC50 (MATE1): 34.5 µM
particle formation observed by DLS [3]: no particles were observed
inhibition of AmpC β-lactamase (in words) (AmpC β-lactamase): no inhibition

Compound: C[C@]12CC[C@H](O)C[C@H]1CC[C@@H]1[C@@H]2CC[C@]2(C)[C@@H](c3ccc(=O)oc3)CC[C@]12O [bufalin]
EC50 (P-glycoprotein): 100 µM
IC50 [2, 7]: 101 µM
IC50 [2, 9]: > 200 µM
EC50 (CYP3A4): 14.5 µM
radius [3]: 1317 ± 394 nm
CAC (critical aggregation concentration) [3]: 51 ± 3 µM

IC50 [2, 7]: 135 µM
IC50 [2, 9]: 156 µM
radius [3]: 78 ± 25 nm
concentration at which the molecule may aggregate [3]: ≥ 100 µM
CAC (critical aggregation concentration) [3]: 135 µM and 135 ± 40 µM
Compound: O=c1c(-c2ccc(O)cc2)coc2c([C@@H]3O[C@H](CO)[C@@H](O)[C@H](O)[C@H]3O)c(O)ccc12 [puerarin]
EC50 (ASICs): 38.4 µM

Compound: COc1ccc2c(c1OC)CN1CCc3cc4c(cc3[C@@H]1C2)OCO4 [canadine]
inhibition of MDH (in words) [2]: did not inhibit
radius [3]: 52 ± 14 nm
CAC (critical aggregation concentration) [3]: 95 ± 11 µM
particle formation observed by DLS [3]: formed particles
EC50 (CDK2): > 50 µM
inhibition of AmpC β-lactamase (in words) (AmpC β-lactamase): did not inhibit

IC50 [2, 7]: 49 µM
IC50 [2, 9]: > 200 µM
radius [3]: 269 ± 49 nm
CAC (critical aggregation concentration) [3]: 40 ± 4.0 µM
Compound: COc1cc2c(O)c3c(c(-c4ccc5c(c4)OCO5)c2cc1OC)C(=O)OC3 [diphyllin]

concentration at which the molecule may aggregate [3]: ≥ 100 µM
particle formation observed by DLS [3]: no particles were observed
Compound: Oc1ccc([C@H]2COc3cc(O)ccc3C2)cc1 [equol]
EC50 (ERR): 5.8 µM

Compound: COc1cc(O)c2c(c1)C(=O)c1cc(C)cc(O)c1C2=O [physcion]
IC50 ([2]; read-out: IC50 vs MDH, no DTT): 11 µM
IC50 [2, 7]: 11 µM
IC50 [2, 8]: 8 µM
IC50 [2, 9]: > 20 µM
EC50 (PTP1B): 20 µM
EC50 (MMP): 26.8 to 45.3 µM
radius [3]: 320 ± 83 nm
CAC (critical aggregation concentration) [3]: 0.32 ± 0.025 µM
IC50 (AmpC β-lactamase; no DTT): 7 µM
IC50 (AmpC β-lactamase; with DTT, with 1 mM DTT): 11 µM

IC50 [2, 7]: 12 µM
IC50 [2, 9]: > 100 µM
radius [3]: 53 ± 16 nm
CAC (critical aggregation concentration) [3]: 0.47 ± 0.15 µM
Compound: COc1cc(C2Oc3cc([C@H]4Oc5cc(O)cc(O)c5C(=O)[C@@H]4O)ccc3OC2CO)ccc1O (stereo partly shown) [silibinin]
EC50 (GLUT4): 60 µM
EC50 (Hsp90): 250 µM

IC50 [2, 7]: 1.6 µM
IC50 [2, 9]: 84 µM
radius [3]: 52 ± 10 nm
CAC (critical aggregation concentration) [3]: 57 ± 7 µM
Compound: Oc1ccc2c(c1)OC[C@]1(O)Cc3cc(O)c(O)cc3[C@H]21 [brazilin]

Compound: COc1cc(/C=C/C(=O)CC(=O)/C=C/c2ccc(O)c(OC)c2)ccc1O [curcumin]
EC50 (HIV-2 protease [4]): 250 µM
IC50 ([2]; read-out: IC50 vs MDH, no DTT): 9 µM
IC50 [2, 7]: 9 µM
IC50 [2, 8]: 10 µM
IC50 [2, 9]: > 30 µM
EC50 (Ca^2+-ATPase): ~3 µM
EC50 (HIV-1 protease): 100 µM
IC50 (HIV-2 protease [5]; no detergent, 1 mM EDTA and 0.5 mM TCEP): 19 µM
IC50 (HIV-2 protease [5]; with detergent, 1 mM EDTA and 0.5 mM TCEP + 0.01% (v/v) Triton X-100): > 100 µM
radius [3]: 465 ± 30 nm
CAC (critical aggregation concentration) [3]: 17 µM and 17 ± 0.44 µM

IC50 ([1]; no detergent, pH 7.0): 110 µM
IC50 [1, 6]: > 250 µM
IC50 [2, 7]: 61 µM
IC50 [2, 9]: > 100 µM
radius [3]: 61 ± 20 nm
CAC (critical aggregation concentration) [3]: 81 ± 26 µM
Compound: O=c1c(O)c(-c2ccc(O)cc2)oc2cc(O)cc(O)c12 [kaempferol]
EC50 (CDK): 2.5 to 51 µM

Compound: Oc1cc(O)c2cc(O)c(-c3cc(O)c(O)c(O)c3)[o+]c2c1 [delphinidin]
IC50 [2, 7]: 27 µM
IC50 [2, 9]: > 100 µM
EC50 (GL01): 1.9 µM
particle formation observed by DLS [3]: no particles were observed
